Measured values as given in patent publication US10000507B2, “Furo- and thieno-pyridine carboxamide compounds useful as pim kinase inhibitors” (Incyte Corporation, priority 2013, dated 2018).
pIC50: −log10 of the molar value.

Legend:
Type in all cases: biochemical
Pim-1 = Pim-1 (Homo sapiens (Human), UniProt P11309); assay: Pim-1 kinase assay; conditions: 1 mM ATP, biotin-labeled BAD peptide substrate; read-out: Pim1 IC50
Procedure, shortened: (§1)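 Biotin-BAD peptide ([…]) phosphorylated with 1 mM ATP by 2.5 pM Pim-1 or 1.25 pM Pim-3, 1 h at 25 °C in Tris pH 7.5, MgCl2, DTT buffer. EDTA stop with anti-phospho-BAD (Ser112) antibody and AlphaScreen streptavidin donor/Protein-A acceptor beads; signal read after 1 h dark incubation.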

Pim-2 = Pim-2 (Homo sapiens (Human), UniProt Q9P1W9); assay: Pim-2 kinase assay; conditions: 1 mM ATP, fluorescein-labeled CREBtide peptide substrate; read-out: Pim2 IC50
Chain of Pim-2 (Q9P1W9 whole entry): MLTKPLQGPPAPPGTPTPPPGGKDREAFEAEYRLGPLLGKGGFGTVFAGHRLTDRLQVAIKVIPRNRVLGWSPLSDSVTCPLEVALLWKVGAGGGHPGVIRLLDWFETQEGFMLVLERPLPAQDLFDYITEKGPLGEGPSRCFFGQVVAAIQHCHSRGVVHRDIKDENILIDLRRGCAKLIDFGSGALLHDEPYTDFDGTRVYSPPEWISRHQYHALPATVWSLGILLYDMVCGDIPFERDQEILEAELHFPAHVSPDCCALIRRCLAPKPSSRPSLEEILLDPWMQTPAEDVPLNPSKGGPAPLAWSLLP
Procedure, shortened: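 Phosphorylated CREBtide was detected by terbium anti-pSer133 antibody TR-FRET after EDTA quench and 30 min at room temperature. Reactions ran 2 h at 25 °C with 1 mM ATP, 0.05 μM fluorescein-labelled substrate and 1 nM enzyme in pH 7.5 Tris buffer.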

Pim-3 = Pim-3 (Homo sapiens (Human), UniProt Q86V86); assay: Pim-3 kinase assay; conditions: 1 mM ATP, biotin-labeled BAD peptide substrate; read-out: Pim3 IC50
Procedure, shortened: as §1

Chain of Pim-1 (P11309 whole entry): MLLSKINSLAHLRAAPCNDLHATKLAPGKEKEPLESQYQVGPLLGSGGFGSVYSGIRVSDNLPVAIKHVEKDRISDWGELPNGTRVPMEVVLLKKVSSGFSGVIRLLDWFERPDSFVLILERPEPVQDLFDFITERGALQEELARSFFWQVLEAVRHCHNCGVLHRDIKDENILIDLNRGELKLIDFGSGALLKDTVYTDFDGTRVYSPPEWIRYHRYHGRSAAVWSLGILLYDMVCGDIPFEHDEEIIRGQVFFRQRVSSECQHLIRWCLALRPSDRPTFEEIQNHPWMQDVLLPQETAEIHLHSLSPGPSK

Row | Structure (SMILES) | pIC50 (Pim-1) | pIC50 (Pim-2) | pIC50 (Pim-3)
1 | Nc1oc2cc(C3CCOCC3)cnc2c1C(=O)Nc1cnccc1N1C[C@@H](N)C[C@@H](C(F)(F)F)C1 [Example 92, 2-Amino-N-{4-[(3S,5R)-3-amino-5-(trifluoromethyl)piperidin-1-yl]pyridin-3-yl}-6-(tetrahydro-2H-pyran-4-yl)furo[3,2-b]pyridine-3-carboxamide] | ≥ 8.00 | ≥ 8.00 | ≥ 8.00
2 | Cn1ncc(NC(=O)c2c(N)oc3cccnc23)c1N1CCCC(N)CC1 (stereo not drawn) [Example 46, 2-Amino-N-[5-(4-aminoazepan-1-yl)-1-methyl-1H-pyrazol-4-yl]furo[3,2-b]pyridine-3-carboxamide] | ≥ 8.00 | < 5.70 | 7.00 to 8.00
3 | Cn1ncc(NC(=O)c2c(N)sc3cccnc23)c1N1CCC[C@@H](N)C1 [Example 3, 2-Amino-N-{5-[(3R)-3-aminopiperidin-1-yl]-1-methyl-1H-pyrazol-4-yl}thieno[3,2-b]pyridine-3-carboxamide] | ≥ 8.00 | < 5.70 | ≥ 8.00
4 | C[C@@H]1C[C@H](N)CN(c2ccncc2NC(=O)c2c(N)oc3cc(C4CCC4)cnc23)C1 [Example 97, 2-Amino-N-{4-[(3S,5R)-3-amino-5-methylpiperidin-1-yl]pyridin-3-yl}-6-cyclobutylfuro[3,2-b]pyridine-3-carboxamide] | ≥ 8.00 | ≥ 8.00 | ≥ 8.00
5 | Nc1oc2c(Cl)ccnc2c1C(=O)Nc1cnccc1N1CCC[C@H](N)C1 [Example 81, 2-Amino-N-{4-[(3S)-3-aminopiperidin-1-yl]pyridin-3-yl}-7-chloro-furo[3,2-b]pyridine-3-carboxamide] | ≥ 8.00 | ≥ 8.00 | ≥ 8.00
6 | C[C@@H]1C[C@H](N)CN(c2ccncc2NC(=O)c2c(N)oc3cc(C4CCOC4)cnc23)C1 (stereo partly drawn) [Example 122, 2-Amino-N-(4-((3S,5R)-3-amino-5-methylpiperidin-1-yl)pyridin-3-yl)-6-(tetrahydrofuran-3-yl)furo[3,2-b]pyridine-3-carboxamide] | ≥ 8.00 | ≥ 8.00 | ≥ 8.00
7 | C[C@@H]1C[C@H](N)CN(c2ccncc2NC(=O)c2c(N)oc3cc(C(F)(F)F)cnc23)C1 [Example 73, 2-Amino-N-{4-[(3S,5R)-3-amino-5-methyl-piperidin-1-yl]pyridin-3-yl}-6-(trifluoromethyl)-furo[3,2-b]pyridine-3-carboxamide] | ≥ 8.00 | 7.00 to 8.00 | ≥ 8.00
8 | C[C@@H]1C[C@H](N)CN(c2ccncc2NC(=O)c2c(N)oc3cccnc23)C1 [Example 65, 2-amino-N-{4-[(3S,5R)-3-amino-5-methyl-piperidin-1-yl]pyridin-3-yl}-furo[3,2-b]pyridine-3-carboxamide] | ≥ 8.00 | 7.00 to 8.00 | ≥ 8.00
9 | CCc1cnc2c(C(=O)Nc3cnccc3N3CCC[C@H](N)C3)c(N)sc2c1 [Example 22, 2-Amino-N-{4-[(3S)-3-aminopiperidin-1-yl]pyridin-3-yl}-6-ethylthieno[3,2-b]pyridine-3-carboxamide] | ≥ 8.00 | 7.00 to 8.00 | ≥ 8.00
10 | Nc1sc2cccnc2c1C(=O)Nc1cnccc1N1CCC[C@@H](N)C1 [Example 7, 2-Amino-N-{4-[(3R)-3-aminopiperidin-1-yl]pyridin-3-yl}thieno[3,2-b]pyridine-3-carboxamide] | ≥ 8.00 | < 5.70 | < 7.40
11 | Nc1sc2c(C(F)(F)F)ccnc2c1C(=O)Nc1cnccc1N1CCC[C@H](N)C1 [Example 38, 2-Amino-N-{4-[(3S)-3-aminopiperidin-1-yl]pyridin-3-yl}-7-trifluoromethyl-thieno[3,2-b]pyridine-3-carboxamide] | ≥ 8.00 | 6.00 to 7.00 | ≥ 8.00
12 | Nc1oc2cccnc2c1C(=O)Nc1cnccc1N1C[C@@H](N)C[C@@H](C(F)(F)F)C1 [Example 60, 2-amino-N-{4-[(3S,5R)-3-amino-5-(trifluoromethyl)piperidin-1-yl]pyridin-3-yl}-furo[3,2-b]pyridine-3-carboxamide] | ≥ 8.00 | 7.00 to 8.00 | ≥ 8.00
13 | CC(C)Oc1ccnc2c(C(=O)Nc3cnn(C)c3N3CCCC(N)CC3)c(N)sc12 (stereo not drawn) [Example 19, 2-Amino-N-[5-(4-aminoazepan-1-yl)-1-methyl-1H-pyrazol-4-yl]-7-isopropoxythieno[3,2-b]pyridine-3-carboxamide] | ≥ 8.00 | 7.00 to 8.00 | ≥ 8.00
14 | Nc1sc2cc(F)cnc2c1C(=O)Nc1cnccc1N1CCC[C@H](N)C1 [Example 36, 2-Amino-N-{4-[(3S)-3-aminopiperidin-1-yl]pyridin-3-yl}-6-fluoro-thieno[3,2-b]pyridine-3-carboxamide] | ≥ 8.00 | 6.00 to 7.00 | ≥ 8.00
15 | CCCc1cnc2c(C(=O)Nc3cnccc3N3CCC[C@H](N)C3)c(N)oc2c1 [Example 51, 2-amino-N-{4-[(3S)-3-aminopiperidin-1-yl]pyridin-3-yl}-6-(propyl)furo[3,2-b]pyridine-3-carboxamide] | ≥ 8.00 | 7.00 to 8.00 | ≥ 8.00
16 | Cn1ncc(NC(=O)c2c(N)oc3c(Cl)ccnc23)c1N1CCCC(N)CC1 (stereo not drawn) [Example 58, 2-amino-N-[5-(4-aminoazepan-1-yl)-1-methyl-1H-pyrazol-4-yl]-7-chlorofuro[3,2-b]pyridine-3-carboxamide] | ≥ 8.00 | 6.00 to 7.00 | ≥ 8.00
17 | COc1ccnc2c(C(=O)Nc3cnn(C)c3N3CCCC(N)CC3)c(N)sc12 (stereo not drawn) [Example 17, 2-Amino-N-[5-(4-aminoazepan-1-yl)-1-methyl-1H-pyrazol-4-yl]-7-methoxythieno[3,2-b]pyridine-3-carboxamide] | ≥ 8.00 | ≥ 8.00 | ≥ 8.00
18 | Nc1oc2cc(F)cnc2c1C(=O)Nc1cnccc1N1C[C@@H](N)C[C@@H](C(F)(F)F)C1 [Example 63, 2-amino-N-{4-[(3S,5R)-3-amino-5-(trifluoromethyl)piperidin-1-yl]pyridin-3-yl}-6-fluorofuro[3,2-b]pyridine-3-carboxamide] | ≥ 8.00 | 7.00 to 8.00 | ≥ 8.00
19 | CCCc1cnc2c(C(=O)Nc3cnccc3N3C[C@@H](N)[C@H](O)[C@@H](C4CC4)C3)c(N)oc2c1 [Example 82, 2-Amino-N-{4-[(3R,4R,5S)-3-amino-5-cyclopropyl-4-hydroxypiperidin-1-yl]pyridin-3-yl}-6-propylfuro[3,2-b]pyridine-3-carboxamide] | ≥ 8.00 | ≥ 8.00 | ≥ 8.00
20 | C[C@@H]1C[C@H](N)CN(c2ccncc2NC(=O)c2c(N)oc3cc(C4CCOCC4)cnc23)C1 [Example 95, 2-Amino-N-{4-[(3S,5R)-3-amino-5-methylpiperidin-1-yl]pyridin-3-yl}-6-(tetrahydro-2H-pyran-4-yl)furo[3,2-b]pyridine-3-carboxamide] | ≥ 8.00 | 7.00 to 8.00 | ≥ 8.00
21 | Nc1sc2cccnc2c1C(=O)Nc1cnccc1N1CCC[C@H](N)C1 [Example 6, 2-Amino-N-{4-[(3S)-3-aminopiperidin-1-yl]pyridin-3-yl}thieno[3,2-b]pyridine-3-carboxamide] | ≥ 8.00 | 6.00 to 7.00 | ≥ 8.00
22 | Nc1sc2cc(C3CCOCC3)cnc2c1C(=O)Nc1cnccc1N1CCC[C@H](N)C1 [Example 35, 2-Amino-N-{4-[(3S)-3-aminopiperidin-1-yl]pyridin-3-yl}-6-(tetrahydro-2H-pyran-4-yl)thieno[3,2-b]pyridine-3-carboxamide] | ≥ 8.00 | 7.00 to 8.00 | ≥ 8.00
23 | Cn1ncc(NC(=O)c2c(N)sc3ccc(Cl)nc23)c1N1CCC[C@H](N)C1 [Example 41, 2-Amino-N-{5-[(3S)-3-aminopiperidin-1-yl]-1-methyl-1H-pyrazol-4-yl}-5-chlorothieno[3,2-b]pyridine-3-carboxamide] | ≥ 8.00 | 6.00 to 7.00 | ≥ 8.00
24 | CCCc1cnc2c(C(=O)Nc3cnccc3N3C[C@H](C)C[C@H](N)C3)c(N)oc2c1 [Example 70, 2-Amino-N-{4-[(3S,5R)-3-amino-5-methyl-piperidin-1-yl]pyridin-3-yl}-6-propylfuro[3,2-b]pyridine-3-carboxamide] | ≥ 8.00 | 7.00 to 8.00 | ≥ 8.00
25 | CN1CCN(Cc2cnc3c(C(=O)Nc4cnccc4N4C[C@@H](N)C[C@@H](C(F)(F)F)C4)c(N)oc3c2)CC1 [Example 108, 2-Amino-N-{4-[(3S,5R)-3-amino-5-(trifluoromethyl)piperidin-1-yl]pyridin-3-yl}-6-[(4-methylpiperazin-1-yl)methyl]furo[3,2-b]pyridine-3-carboxamide] | ≥ 8.00 | 7.00 to 8.00 | ≥ 8.00
26 | CCCc1cnc2c(C(=O)Nc3cncc(C)c3N3C[C@@H](N)[C@H](O)[C@@H](C)C3)c(N)oc2c1 [Example 77, 2-Amino-N-{5-methyl-4-[(3R,4R,5S)-3-amino-4-hydroxy-5-methylpiperidin-1-yl]pyridin-3-yl}-6-propylfuro[3,2-b]pyridine-3-carboxamide] | ≥ 8.00 | ≥ 8.00 | ≥ 8.00
27 | Nc1sc2cc(-c3c(F)cccc3F)cnc2c1C(=O)Nc1cnccc1N1CCC[C@H](N)C1 [Example 26, 2-Amino-N-{4-[(3S)-3-aminopiperidin-1-yl]pyridin-3-yl}-6-(2,6-difluorophenyl)-thieno[3,2-b]pyridine-3-carboxamide] | ≥ 8.00 | 7.00 to 8.00 | ≥ 8.00
